According to article PMC3214968 (Journal of medicinal chemistry, 2011):

Key:
prostasin activation = test: Acid-induced prostasin activation in HaCaT keratinocytes, immunoblot; type: cell-based, human; conditions: HaCaT cells, pH 6.0, dose-dependent
matriptase activation [1] = biological target: T1, matriptase activation (Homo sapiens, UniProt Q9Y5Y6); type: cell-based; conditions: 184 A1N4 intact cells; for Inhibition of matriptase activation by immunoblot, increasing concentrations: pH 6.0, mAb M24 and M69
T1 sequence (Q9Y5Y6 1-855): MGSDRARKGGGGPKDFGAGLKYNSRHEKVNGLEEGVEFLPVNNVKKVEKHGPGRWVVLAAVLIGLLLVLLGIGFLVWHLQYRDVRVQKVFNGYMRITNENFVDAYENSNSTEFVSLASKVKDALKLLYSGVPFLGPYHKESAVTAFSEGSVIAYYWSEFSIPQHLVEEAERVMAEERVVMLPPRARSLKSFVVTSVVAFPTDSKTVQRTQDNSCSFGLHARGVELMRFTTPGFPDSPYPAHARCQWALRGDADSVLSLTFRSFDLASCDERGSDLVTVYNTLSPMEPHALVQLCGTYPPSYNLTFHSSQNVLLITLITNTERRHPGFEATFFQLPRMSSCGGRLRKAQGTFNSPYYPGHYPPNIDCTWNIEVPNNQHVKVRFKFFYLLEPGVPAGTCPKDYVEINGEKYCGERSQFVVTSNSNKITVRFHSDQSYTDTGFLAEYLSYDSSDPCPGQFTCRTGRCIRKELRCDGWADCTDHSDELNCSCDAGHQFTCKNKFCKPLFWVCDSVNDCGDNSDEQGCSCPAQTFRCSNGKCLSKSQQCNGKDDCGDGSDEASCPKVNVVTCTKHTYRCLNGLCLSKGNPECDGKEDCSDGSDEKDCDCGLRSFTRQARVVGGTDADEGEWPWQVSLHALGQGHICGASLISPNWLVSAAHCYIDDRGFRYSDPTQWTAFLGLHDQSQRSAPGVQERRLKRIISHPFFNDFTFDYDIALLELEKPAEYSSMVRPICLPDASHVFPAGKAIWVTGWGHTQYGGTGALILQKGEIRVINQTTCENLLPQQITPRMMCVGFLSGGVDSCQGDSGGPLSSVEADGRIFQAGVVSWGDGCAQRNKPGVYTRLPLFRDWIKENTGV

matriptase activation [2] = biological target: T1, matriptase activation; test: Acid-induced matriptase activation in HaCaT keratinocytes, immunoblot; type: cell-based; conditions: HaCaT cells, pH 6.0, dose-dependent
matriptase activation [3] = biological target: T1, matriptase activation; test: Cell-free in vitro matriptase activation assay; type: biochemical; conditions: insoluble fractions of 184 A1N4 cell homogenates, pH 6.0
[4] = biological target: T2, matriptase zymogen activation (Homo sapiens, UniProt Q9Y5Y6); test: Cell-based, ELISA-like matriptase activation assay; conditions: 184 A1N4 cells, pH 6.0 buffer, 20 min, ELISA-like assay and immunoblot
T2 sequence (Q9Y5Y6 1-855): T1 sequence (Q9Y5Y6 1-855)

| Molecule | Inhibition of acid-induced activation of prostasin (prostasin activation) | Inhibition of matriptase activation by immunoblot, increasing concentrations (matriptase activation [1]) | Inhibition of acid-induced activation of matriptase (matriptase activation [2]) | Inhibition of matriptase activation in the cell-free system (matriptase activation [3]) | NaCl-mediated inhibition of acid-induced matriptase activation [4] | 120-kDa matriptase-HAI-1 complex (matriptase activation) by immunoblot (matriptase activation [1]; 5 μM compound, pH 6.0) |
| --- | --- | --- | --- | --- | --- | --- |
| Cc1nc(N2C(=O)C(O)=C(C(=O)c3cccs3)C2c2ccccc2)sc1C (centres unmarked) [compound 3, 1-(4,5-dimethylthiazol-2-yl)-3-hydroxy-5-phenyl-4-(thiophene-2-carbonyl)-1H-pyrrol-2(5H)-one] | same pattern of inhibition | same pattern of inhibition | same pattern of inhibition | suppress matriptase activation in a dose-dependent manner |  |  |
| O=C(C1=C(O)C(=O)N(c2nccs2)C1c1cccs1)c1cccs1 (centres unmarked) [compound 1, 3-hydroxy-1-(thiazol-2-yl)-5-(thiophen-2-yl)-4-(thiophene-2-carbonyl)-1H-pyrrol-2(5H)-one] | same pattern of inhibition | same pattern of inhibition | same pattern of inhibition | suppress matriptase activation in a dose-dependent manner |  |  |
| Sodium chloride [NaCl] |  |  |  |  | dose-dependent manner |  |
| Cc1nc(N2C(=O)C(O)=C(C(=O)c3cccs3)C2c2cccs2)sc1C (centres unmarked) [compound 2, 1-(4,5-dimethylthiazol-2-yl)-3-hydroxy-5-(thiophen-2-yl)-4-(thiophene-2-carbonyl)-1H-pyrrol-2(5H)-one] | clearly inhibited |  | clearly inhibited | suppress matriptase activation in a dose-dependent manner |  | no detectable 120-kDa complex |
| Cc1nc(N2C(=O)C(O)=C(C(=O)c3ccccc3)C2c2cccs2)sc1C (centres unmarked) [compound 4, 4-benzoyl-1-(4,5-dimethylthiazol-2-yl)-3-hydroxy-5-(thiophen-2-yl)-1H-pyrrol-2(5H)-one] | same pattern of inhibition | same pattern of inhibition | same pattern of inhibition | suppress matriptase activation in a dose-dependent manner |  |  |
